These results are taken from patent US7501418B2, “Fused heterocyclic isoxazoline derivatives and their use as anti-depressants” (Janssen Pharmaceutica, N.V., priority 2002, dated 2009).

Where “and” joins values, the source holds several entries; their conditions need not be identical. Equal values may be shown once. Where a name gives a salt, the structure may show the parent alone. Read-outs that look alike come from different tables or passages of the source.

One data set has as its target T1, hα2A receptor (Homo sapiens, UniProt P08913).
T1 construct: expressed in transfected cells
T1 sequence (P08913 1-465): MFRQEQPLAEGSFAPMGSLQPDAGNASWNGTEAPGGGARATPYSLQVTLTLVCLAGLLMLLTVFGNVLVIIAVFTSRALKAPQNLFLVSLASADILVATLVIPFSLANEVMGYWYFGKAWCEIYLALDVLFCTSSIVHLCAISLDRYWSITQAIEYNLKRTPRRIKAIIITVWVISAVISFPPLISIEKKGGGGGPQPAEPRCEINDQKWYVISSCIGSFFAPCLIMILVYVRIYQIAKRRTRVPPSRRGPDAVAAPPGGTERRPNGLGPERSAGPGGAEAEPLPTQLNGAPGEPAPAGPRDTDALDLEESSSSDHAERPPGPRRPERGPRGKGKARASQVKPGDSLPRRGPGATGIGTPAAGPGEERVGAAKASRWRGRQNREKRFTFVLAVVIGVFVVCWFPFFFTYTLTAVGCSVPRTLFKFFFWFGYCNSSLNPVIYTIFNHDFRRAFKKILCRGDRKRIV
Nature of the data set: Radioligand binding experiment for α2A-adrenergic receptor ([3H]-raulwolscine). The conditions noted are these: CHO cell membranes with human α2A receptor, [3H]raulwolscine 1 nM. The method, then: (§1) In general, a low concentration of a radioligand with a high binding affinity for a particular receptor or transporter is incubated with a sample of a tissue preparation enriched in a particular receptor or transporter or with a preparation of cells expressing cloned human receptors in a buffered medium. During the incubation, the radioligand binds to the receptor or transporter. When equilibrium of binding is reached, the receptor bound radioactivity is separated from the non-bound radioactivity, and the receptor- or transporter-bound activity is counted. The interaction of the test compounds with the receptor is assessed in competition binding experiments. Various concentrations of the test compound are added to the incubation mixture containing the receptor- or transporter preparation and the radioligand. The test compound in proportion to its binding affinity and its concentration inhibits binding of the radioligand. The radioligand used for hα2A, hα2B and hα2C receptor binding was [^3H]-raulwolscine and for the h5-HT transporter was [^3H]paroxetine. CHO cells, stabile transfected with human adrenergic-α2A-, -α2B or α2C receptor cDNA, were cultured in Dulbecco's Modified Eagle's Medium (DMEM)/Nutrient mixture Ham's F12 (ratio 1:1)(Gibco, Gent-Belgium) supplemented with 10% heat inactivated fetal calf serum (Life Technologies, Merelbeke-Belgium) and antibiotics (100 IU/ml penicillin G, 100 μg/ml streptomycin sulphate, 110 μg/ml pyruvic acid and 100 μg/ml L-glutamine). One day before collection, cells were induced with 5 mM sodiumbutyrate. Upon 80-90% of confluence, cells were scraped in phosphate buffered saline without Ca^2+ and Mg^2+ and collected by centrifugation at 1500×g for 10 min. The cells were homogenised in Tris-HCl 50 mM using an Ultraturrax homogenizer and centrifuged for 10 min at 23,500×g. The pellet was washed once by resuspension and rehomogenization and the final pellet was resuspended in Tris-HCl, divided in 1 ml aliquots and stored at −70° C. Membranes were thawed and re-homogenized in incubation buffer (glycylglycine 25 mM, pH 8.0). In a total volume of 500 μl, 2-10 μg protein was incubated with [^3H]raulwolscine (NET-722) (New England Nuclear, USA) (1 nM final concentration) with or without competitor for 60 min at 25° C. followed by rapid filtration over GF/B filter using a Filtermate196 harvester (Packard, Meriden, Conn.). Filters were rinsed extensively with ice-cold rinsing buffer (Tris-HCl 50 mM pH 7.4). Filter-bound radioactivity was determined by scintillation counting in a Topcount (Packard, Meriden, Conn.) and results were expressed as counts per minute (cpm). Non-specific binding was determined in the presence of 1 μM oxymetazoline for hα2A- and hα2B receptors and 1 μM spiroxatrine for hα2C receptors. Data from assays in the presence of compound were calculated as a percentage of total binding measured in the absence of test compound. Inhibition curves, plotting percent of total binding versus the log value of the concentration of the test compound, were automatically generated, and sigmoidal inhibition curves were fitted using non-linear regression. The pIC50 values of test compounds were derived from individual curves.

A further data set deals with T2, hα2C receptor (Homo sapiens, UniProt P18825).
T2 construct: expressed in transfected cells
T2 sequence (P18825 1-462): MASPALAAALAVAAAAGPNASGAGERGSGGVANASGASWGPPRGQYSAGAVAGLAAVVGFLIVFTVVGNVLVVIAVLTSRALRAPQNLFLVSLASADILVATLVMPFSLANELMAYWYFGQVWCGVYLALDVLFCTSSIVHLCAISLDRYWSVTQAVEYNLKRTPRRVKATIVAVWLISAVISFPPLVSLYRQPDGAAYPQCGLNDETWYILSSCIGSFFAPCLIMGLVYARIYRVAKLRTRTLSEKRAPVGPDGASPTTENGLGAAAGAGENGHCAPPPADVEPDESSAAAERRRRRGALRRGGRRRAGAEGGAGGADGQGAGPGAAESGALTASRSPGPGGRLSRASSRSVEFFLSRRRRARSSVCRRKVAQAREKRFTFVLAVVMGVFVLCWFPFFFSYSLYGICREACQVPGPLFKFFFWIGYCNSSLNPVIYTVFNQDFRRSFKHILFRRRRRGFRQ
As to the kind of experiment: Radioligand binding experiment for α2C-adrenergic receptor ([3H]-raulwolscine). The procedure:
as §1

The next data set deals with T3, h5-HT transporter (Homo sapiens, UniProt P31645).
T3 construct: Human platelet membranes (Oceanix Biosciences Corporation, Hanover, Md., USA) were thawed; tissue Oceanix Biosciences Corporation, Hanover, Md., USA; host or cells: human platelet membranes
As to the kind of experiment: Radioligand binding experiment for 5-HT transporter ([3H]paroxetine). The conditions noted are these: human platelet membranes, [3H]paroxetine 0.5 nM. The method, then: In general, a low concentration of a radioligand with a high binding affinity for a particular receptor or transporter is incubated with a sample of a tissue preparation enriched in a particular receptor or transporter or with a preparation of cells expressing cloned human receptors in a buffered medium. During the incubation, the radioligand binds to the receptor or transporter. When equilibrium of binding is reached, the receptor bound radioactivity is separated from the non-bound radioactivity, and the receptor- or transporter-bound activity is counted. The interaction of the test compounds with the receptor is assessed in competition binding experiments. Various concentrations of the test compound are added to the incubation mixture containing the receptor- or transporter preparation and the radioligand. The test compound in proportion to its binding affinity and its concentration inhibits binding of the radioligand. The radioligand used for hα2A, hα2B and hα2C receptor binding was [^3H]-raulwolscine and for the h5-HT transporter was [^3H]paroxetine. Human platelet membranes (Oceanix Biosciences Corporation, Hanover, Md., USA) were thawed, diluted in buffer (Tris-HCl 50 mM, 120 mM NaCl and 5 mM KCl) and quickly (max 3 s) homogenised with an Ultraturrax homogenizer. In a total volume of 250 μL, 50-100 μg protein was incubated with [^3H]paroxetine (NET-869) (New England Nuclear, USA) (0.5 nM final concentration) with or without competitor for 60 min at 25 ° C. Incubation was stopped by rapid filtration of the incubation mixture over GF/B filters, pre-wetted with 0.1% polyethyleneamine, using a Filtermate196 harvester (Packard, Meriden, Conn.). Filters were rinsed extensively with ice-cold buffer and radioactivity on the filters was counted in a Topcount liquid scintillation counter (Packard, Meriden, Conn.). Data were expressed as cpm. Imipramine (at 1 μM final concentration) was used to determine the non-specific binding. Data from assays in the presence of compound were calculated as a percentage of total binding measured in the absence of test compound. Inhibition curves, plotting percent of total binding versus the log value of the concentration of the test compound, were automatically generated, and sigmoidal inhibition curves were fitted using non-linear regression. The pIC50 values of test compounds were derived from individual curves.

The target of the next data set is T4, hα2B receptor (Homo sapiens, UniProt P18089).
T4 construct: expressed in transfected cells
T4 sequence (P18089 1-450): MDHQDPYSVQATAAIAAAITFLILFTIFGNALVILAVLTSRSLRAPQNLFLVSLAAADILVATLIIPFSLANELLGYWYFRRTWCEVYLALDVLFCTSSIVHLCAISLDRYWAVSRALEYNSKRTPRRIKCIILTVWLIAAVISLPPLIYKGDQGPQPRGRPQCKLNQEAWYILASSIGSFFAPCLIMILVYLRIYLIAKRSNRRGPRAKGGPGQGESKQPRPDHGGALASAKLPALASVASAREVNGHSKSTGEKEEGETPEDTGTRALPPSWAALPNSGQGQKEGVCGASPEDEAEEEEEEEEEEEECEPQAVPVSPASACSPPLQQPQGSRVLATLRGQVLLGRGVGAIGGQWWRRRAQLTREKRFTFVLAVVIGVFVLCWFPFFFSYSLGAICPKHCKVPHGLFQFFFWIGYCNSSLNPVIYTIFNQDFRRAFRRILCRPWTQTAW
As to the kind of experiment: Radioligand binding experiment for α2B-adrenergic receptor ([3H]-raulwolscine). The method, then: as §1

Setting [1] is: read-out: hα2A (pIC50) (converted).
The mark [2] stands for this setting: CHO cell membranes with human α2C receptor, [3H]raulwolscine 1 nM, read-out: hα2C (pIC50) (converted).
Where [3] appears, read: read-out: 5-HTT (pIC50) (converted).
Setting [4] is: hα2C (pIC50), CHO cell membranes with human α2C receptor, [3H]raulwolscine 1 nM.
Setting [5] is: hα2B (pIC50), CHO cell membranes with human α2B receptor, [3H]raulwolscine 1 nM.
Setting [6] is: CHO cell membranes with human α2C receptor, [3H]raulwolscine 1 nM.
[7] abbreviates: CHO cell membranes with human α2B receptor, [3H]raulwolscine 1 nM.

T3 sequence (P31645 whole entry): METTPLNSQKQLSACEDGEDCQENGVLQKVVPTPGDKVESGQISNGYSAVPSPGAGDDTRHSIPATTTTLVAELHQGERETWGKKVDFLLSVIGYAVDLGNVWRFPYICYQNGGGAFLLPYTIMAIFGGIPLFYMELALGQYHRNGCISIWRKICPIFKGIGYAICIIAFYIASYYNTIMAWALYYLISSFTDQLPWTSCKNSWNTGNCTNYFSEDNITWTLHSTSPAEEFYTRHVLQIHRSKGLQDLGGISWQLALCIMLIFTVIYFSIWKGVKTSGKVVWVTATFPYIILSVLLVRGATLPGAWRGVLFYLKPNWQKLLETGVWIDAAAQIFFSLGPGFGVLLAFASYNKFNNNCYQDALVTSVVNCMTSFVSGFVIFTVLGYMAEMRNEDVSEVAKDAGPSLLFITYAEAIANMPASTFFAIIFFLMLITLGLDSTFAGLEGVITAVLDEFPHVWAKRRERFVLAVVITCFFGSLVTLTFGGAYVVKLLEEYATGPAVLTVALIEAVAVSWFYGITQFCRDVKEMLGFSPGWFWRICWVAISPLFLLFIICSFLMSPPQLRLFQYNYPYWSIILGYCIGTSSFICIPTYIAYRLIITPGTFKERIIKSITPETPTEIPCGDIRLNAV

Broadly, the melting point is the temperature, or range, at which the solid turns liquid. `C/C(=C\c1ccc(F)cc1)CN1CCN(CC2ON=C3c4sccc4OCC32)CC1` (stereo not shown) [Compound 27, 3-{4-[3-(4-fluoro-pheny)-2-methyl-allyl]-piperazin-1-ylmethyl}-3a,4-dihydro-3H-2,5-dioxa-8-thia-1-aza-as-indacene] returned a melting point of 142.3 to 146 °C. Also, the IC50 at hα2A receptor (setting [1]) is 2 nM. At hα2C receptor (setting [2]), the IC50 was 7.94 nM. The IC50 on h5-HT transporter (setting [3]) is 79.4 nM.
With `C/C(=C\c1ccccc1)CN1CCN(CC2ON=C3c4cc5ccn(CCO)c5cc4OCC32)CC1` (single isomer, unassigned) [Compound 17, B-2-{3-[4-(2-methyl-3-phenyl-allyl)-piperazin-1-ylmethyl]-3a,4-dihydro-3H-2,5-dioxa-1,7-diaza-dicyclopenta[a,g]naphthalen7-yl}-ethanol], the melting point lay within 167.5 to 170.5 °C. Moreover, the IC50 on hα2A receptor (hα2A (pIC50)) is 10 nM. Further, the IC50 on hα2C receptor (setting [4]) is 2 nM. In addition, the IC50 at h5-HT transporter (5-HTT (pIC50)) was 501 nM. Besides, at hα2B receptor (setting [5]), the IC50 is 5.01 nM.
Take `C/C(=C\c1ccc(F)cc1)CN1CCN(CC2ON=C3c4ncccc4OCC32)CC1` (stereo not shown) [Compound 24, 3-{4-[3-(4-fluoro-phenyl)-2-methyl-allyl]-piperazin-1-ylmethyl}-3a,4-dihydro-3H-2,5-dioxa-1,9-diaza-cyclopenta[a]naphthalene]: the melting point is 145.6 to 152.3 °C. Also, the IC50 at hα2A receptor (setting [1]) was 6.31 nM. The IC50 on hα2C receptor (setting [2]) was 31.6 nM. Further, on h5-HT transporter (setting [3]), the IC50 was 200 nM.
On to `C/C(=C\c1ccccc1)CN1CCN(CC2ON=C3c4ccncc4OCC32)CC1` (stereo not shown) (as salt: oxalate) [Compound 18, 3-[4-(2-methyl-3-phenyl-allyl)-piperazin-1-ylmethyl]-3a,4-dihydro-3H-2,5-dioxa-1,7-diaza-cyclopenta[a]naphthalene oxalate salt (1/1)], for which the melting point lay within 216.8 to 220.5 °C.
Consider `C/C(=C\c1cccc(F)c1)CN1CCN(CC2ON=C3c4cc5cc[nH]c5cc4OCC32)CC1` (racemic) [Compound 2], for which the “hα2A (pIC50)” value on hα2A receptor is reported as 8.1. Besides, the “hα2C (pIC50)” value at hα2C receptor (setting [6]) is on record as 9.0. Besides, the “5-HTT (pIC50)” value on h5-HT transporter is listed as 8.3. The “hα2B (pIC50)” value at hα2B receptor (setting [7]) was 8.3.
Take `C/C(=C\c1ccccc1)CN1CCN(CC2ON=C3c4cc5ccn(CCO)c5cc4OCC32)CC1` (stereo not shown) [Compound 8]: the IC50 was 15.8 nM at hα2A receptor (hα2A (pIC50)), 2 nM at hα2C receptor (setting [4]), 3.98 nM on h5-HT transporter (5-HTT (pIC50)) and 5.01 nM on hα2B receptor (setting [5]).
For the compound `COC(=O)Cn1ccc2cc3c(cc21)OCC1C3=NOC1CN1CCN(C/C(C)=C/c2ccccc2)CC1` (stereo not shown) [Compound 10, {3-[4-(2-methyl-3-phenyl-allyl)-piperazin-1-ylmethyl]-3a,4-dihydro-3H-2,5-dioxa-1,7-diaza-dicyclopenta[a,g]naphthlen-7-yl}-acetic acid methyl ester], the IC50 at hα2A receptor (hα2A (pIC50)) was 12.6 nM; at hα2C receptor it was 0.794 nM; at h5-HT transporter (5-HTT (pIC50)), 2 nM; at hα2B receptor, 5.01 nM.
Take `c1ccc2cc(CN3CCN(CC4ON=C5c6cc7cc[nH]c7cc6OCC54)CC3)ccc2c1` (racemic) [Compound 4]: on hα2A receptor, the “hα2A (pIC50)” value was determined as 7.6. Also, the “hα2C (pIC50)” value on hα2C receptor (setting [6]) is 8.4. Moreover, the “5-HTT (pIC50)” value on h5-HT transporter is 8.8. In addition, the “hα2B (pIC50)” value on hα2B receptor (setting [7]) was found to be 7.3.
Take `C/C(=C\c1ccccc1)CN1CCN(CC2ON=C3c4ccncc4OCC32)CC1` (stereo not shown) [Compound 18, 3-[4-(2-methyl-3-phenyl-allyl)-piperazin-1-ylmethyl]-3a,4-dihydro-3H-2,5-dioxa-1,7-diaza-cyclopenta[a]naphthalene oxalate salt (1/1)]: the IC50 was 1.26 nM and 1.58 nM on hα2A receptor (setting [1]); 1.58 nM on hα2C receptor (setting [2]); 200 nM and 31.6 nM on h5-HT transporter (setting [3]); 1.58 nM at hα2B receptor (CHO cell membranes with human α2B receptor, [3H]raulwolscine 1 nM, read-out: hα2B (pIC50) (converted)).
